In patent US10143748B2, “B-cell reduction using CD37-specific and CD20-specific binding molecules” (Emergent Product Development Seattle, LLC, priority 2005, dated 2018):

Experiments:
[1] = target: T1, C1q (Homo sapiens, UniProt P02745+P02746+P02747); assay: FITC C1q binding to reagent-coated Ramos B cells in normal human serum; conditions: normal human serum 1.25-10%, FIG. 3A
T1 construct: normal human serum (NHS, #A113, Quidel Corp., San Diego, Calif.); tissue Quidel Corp. A113; host or cells: normal human serum (purchased), added to reagent-coated Ramos B cells
Protocol: C1q binding studies were performed as previously described (Cragg et al., Blood 2004, 103:2738-2743). Briefly, Ramos B-cells in Iscoves media (#12440-053, Gibco/Invitrogen, Grand island, NY) with no serum were plated in 96-well V bottom plates at 5×10^5/well in 100 μl. Cells were incubated with reagents for 15 minutes at 37° C., and normal human serum (NHS, #A113, Quidel Corp., San Diego, Calif.) diluted in Iscoves was then added at a volume of 50 μl to each well for a final concentration of 10, 5, 2.5, or 1.25% human serum. Fifty μl of media was added to the control well. For cobra venom factor (CVF) experiments, CVF was added to human serum complement samples at 20 Units CVF/mL of serum for 90 minutes at 37° C. prior to addition of serum to complement assays, and the dilution of serum by CVF accounted for when making sample dilutions.
The cells plus complement source were incubated for an additional 5 minutes at 37° C., and washed 2 times with cold PBS (#14040-133, Gibco/Invitrogen, Grand Island, N.Y.) via centrifugation and resuspended in 100 μl of PBS. Fifty μl from each well was transferred to a second plate for second step control staining. […] Samples were washed, resuspended in cold PBS, and read immediately on a FACsCalibur flow cytometer and analyzed with Cell Quest software (Becton Dickinson, San Jose, Calif.).

[2] = test system: Ramos cells; assay: Annexin V/PI apoptosis analysis, Ramos; assay type: cell-based, human; conditions: 24 hours, TRU-016 10 μg/mL (unfractionated)
Protocol: Experiments examining the effect of B cell targeted SMIPS on B cell line apoptosis were performed. Each SMIP was tested individually and then in combination. Samples were analyzed at both 24 and 48 hours after initiation of incubation reactions. […] In addition, 20 μg/mL goat anti-human IgG was added to reactions in order to cross link reagents on the cell surface. Cells were then stained with Annexin V-FITC and propidium iodide using the BD Pharmigen Apoptosis Detection Kit I (#556547), and processed according to kit instructions. Briefly, cells were washed twice with cold PBS and resuspended in “binding buffer” at 1×10^6 cells/mL. One hundred microliters of the cells in binding buffer were then stained with 5 μl of Annexin V-FITC and 5 μl of propidium iodide. The cells were gently vortexed and incubated in the dark at room temperature for 15 minutes. Four hundred microliters of binding buffer was then added to each sample. They were then read and analyzed on a FACsCalibur (Becton Dickinson) instrument using Cell Quest software (Becton Dickinson).
Similar data were obtained whether Ramos or BJAB cells were used as the binding targets in these assays.

[3] = test system: CD19 and CD40 positive lymphocytes (B cells); assay: depletion of normal B cells from human PBMC cultures; assay type: cell-based; conditions: 1 μg/ml, 24 to 72 hours, FIG. 20C
Protocol: Human PBMCs were isolated from whole blood by LSM density centrifugation. […] A portion of the incubation reaction was harvested at 48 hours and again at 72 hours after initiation of the experiment. PBMCs were washed and incubated with FITC anti-CD19, FITC anti-CD40, or FITC anti-CD3 for 45 minutes on ice.

[4] = target: T2, CD37 (Homo sapiens, UniProt P11049); assay: competitive binding / FACs cross blocking of FITC anti-CD37 reagents on BJAB cells; set-up: BJAB-cells, a B lymphoblastoid B-cell line, (courtesy of Ed Clark, University of Washington); endogenous in cells; host or cells: BJAB B lymphoblastoid cell line; conditions: unlabeled blocking reagent, FIG. 2
T2 sequence (P11049 1-281): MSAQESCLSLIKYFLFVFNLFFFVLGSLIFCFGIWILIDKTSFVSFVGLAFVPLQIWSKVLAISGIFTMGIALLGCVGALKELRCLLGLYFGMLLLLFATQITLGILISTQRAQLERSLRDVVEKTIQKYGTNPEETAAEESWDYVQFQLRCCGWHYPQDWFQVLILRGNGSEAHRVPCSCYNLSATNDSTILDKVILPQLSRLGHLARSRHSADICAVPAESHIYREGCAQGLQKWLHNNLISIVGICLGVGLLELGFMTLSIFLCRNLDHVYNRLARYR
Protocol: FITC labeled antibody conjugates were titrated from 10 μg/mL to 10 pg/mL in an initial binding study to determine the optimal amounts to use in the blocking studies. The level chosen was just below saturating amounts, and was kept constant in the subsequent assays, while levels of blocking antibody were increased over a 10-fold range. Data were plotted as percent of maximal binding versus concentration of blocking antibody, so that higher levels indicate less efficient blocking, while lower levels indicate more efficient blocking activity.
BJAB-cells, a B lymphoblastoid B-cell line, (courtesy of Ed Clark, University of Washington) were then stained with a panel of various clones of anti-CD37 MAbs, including MB371, BL14, NMN46, IPO24, HH1, WR17, and the TRU-016 SMIP.
For competitive binding assays, 2.5×10^5 BJAB cells were incubated in 96-well V-bottom plates in staining media (PBS with 2% mouse sera) with the FITC-conjugated anti-CD37 MAbs at 1.25 μg/mL in the presence of unconjugated anti-CD37 MAb at the indicated concentrations (2.5, 1.25, 0.6, or 0.3 μg/ml) or staining media for 45 minutes on ice in the dark. Blocking antibodies and FITC labeled antibody conjugates were added to reactions prior to addition of cells. […] The cells were analyzed by flow cytometry using a FACsCalibur instrument and CellQuest software (BD Biosciences, San Jose, Calif.). […]

T1 sequence (P02745 23-245): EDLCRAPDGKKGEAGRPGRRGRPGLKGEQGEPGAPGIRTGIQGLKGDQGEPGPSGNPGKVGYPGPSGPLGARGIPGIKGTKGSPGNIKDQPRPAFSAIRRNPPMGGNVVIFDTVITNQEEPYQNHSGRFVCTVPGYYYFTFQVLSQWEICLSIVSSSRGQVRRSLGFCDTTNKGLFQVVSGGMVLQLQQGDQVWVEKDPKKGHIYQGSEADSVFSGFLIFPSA
T1 sequence (P02746 28-253): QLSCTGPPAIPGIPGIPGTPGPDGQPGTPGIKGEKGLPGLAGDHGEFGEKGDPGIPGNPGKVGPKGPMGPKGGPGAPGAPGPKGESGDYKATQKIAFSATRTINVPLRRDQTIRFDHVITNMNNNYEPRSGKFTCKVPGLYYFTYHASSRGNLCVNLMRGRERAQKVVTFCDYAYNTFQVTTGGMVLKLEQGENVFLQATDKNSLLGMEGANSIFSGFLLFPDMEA
T1 sequence (P02747 29-245): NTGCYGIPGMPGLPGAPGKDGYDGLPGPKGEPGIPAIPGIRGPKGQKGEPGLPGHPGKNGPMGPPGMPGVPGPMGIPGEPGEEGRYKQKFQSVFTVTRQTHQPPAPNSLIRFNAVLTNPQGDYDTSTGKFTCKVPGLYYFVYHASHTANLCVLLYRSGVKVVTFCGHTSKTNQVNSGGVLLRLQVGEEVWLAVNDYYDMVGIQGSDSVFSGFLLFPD

G28-1 scFv VH11S(SSC—P)H WCH2 WCH3 [TRU-016]
FITC C1q binding [1]: does not bind well
% of annexin V positive-PI negative cells ([2]; 8.5% before): 19.7%
% of annexin V-PI double positive cells ([2]; 11.3% before): 32.8%
depletion of B lymphocytes compared to T lymphocytes [3]: capable of specific depletion of CD37 positive B lymphocytes
blocking activity (inhibition of binding of FITC anti-CD37 conjugates) [4]: highest level of blocking activity
